From patent US20030181461A1, “Use of phosphodiesterase antagonists to treat insulin resistance” (priority 2002, published 2003)

Tests used:
[1] = test system: insulin resistance in cats; assay: Development of insulin resistance in cats after muscarinic antagonists (RIST); assay type: in vivo
Description: To avoid the complexity of the reaction to hypoglycemia, the rapid insulin sensitivity test (RIST) was employed (Lautt et al., Can. J. Physiol. Pharmacol. 76:1080 (1998)) wherein a euglycemic clamp was used following the administration of insulin and the response was quantitated as the amount of glucose required to be infused over the test period in order to hold arterial blood glucose levels constant.

[2] = test system: insulin sensitivity in atropine-treated rats; assay: Rapid insulin sensitivity test (RIST) in rats with atropine-induced 75% HISS-dependent insulin resistance; assay type: in vivo, Male Sprague Dawley rats; details: zaprinast 0.1 mg/kg ipv
Protocol: Methods for reversal of HISS-dependent insulin resistance using a phosphodiesterase inhibitor in normal rats Male Sprague Dawley rats (250-300 g) were allowed free access to water and normal rodent food for 1 week prior to all studies. Rats were fasted for 8 hours overnight and fed for 2 hours before the start of study. Rats were anesthetized with pentobarbital-sodium (65 mg/ml, ip injection, 0.1 ml/100 g body weight). Animals were placed on a heated thermostatically controlled surgical table to maintain body temperature during surgery and the experimental procedure. An extra-corporeal arterial-venous shunt (the loop) was established between the right femoral artery and right femoral vein, according to a published, standard operating procedure developed in our laboratory (Xie et al., 1996). The loop allows for regular blood sampling of arterial blood throughout the experiment as well as infusion of intravenous drugs and monitoring of arterial blood pressure. […] A laparotomy was performed and an indwelling portal venous catheter was inserted using a portal vein puncture technique. The portal catheter was used to administer the phosphodiesterase inhibitor directly to the liver. […] At this point, blood samples (25 μl) were taken at regular intervals from the loop and analyzed for glucose concentration. […] Glucose levels were monitored every 2 minutes during and after the infusion of insulin. […]

Row | SMILES | Dose required to produce a full (similar degree of) insulin resistance [1] | Reversal of HDIR produced by atropine [2]
1 | COc1ccccc1CNCCCCCCNCCCCCCCCNCCCCCCNCc1ccccc1OC [methoctramine] | 10^−6 μmol/kg | 
2 | CCCOc1ccccc1-c1nc2nn[nH]c2c(=O)[nH]1 [zaprinast] |  | able to reverse the HDIR produced by atropine
